Values joined by “and” are separate entries in the source; they are usually repeats but may differ in a detail not shown here. Equal entries are not always repeated.
Assays:
[1] = test system: rat heart bioelectrical activity; test: Acute asphyxia, duration of heart bioelectrical activity; assay type: in vivo, rats; settings: 10 mg/kg iv
Procedure: Acute asphyxia was modeled in rats anesthetized with propofol (60 mg/kg) intraperitoneally (ip) by complete clamping the trachea at electrocardiogram (EGC) registration. The antihypoxic effect was evaluated by duration of heart bioelectric activity (HBA). This model allows to estimate the heart sensitivity to hypoxia. An isoelectric ECG line for 1 minute considered as HBA termination, the pint of HBA termination corresponded to the last QRS complex on the ECG. The calculation of […] activity was performed by the above formula considering a point of last QRS complex registration as a lifetime.
(§1) The preliminary screening of test substances was performed on ANHHH model. All derivatives were administered in the same dose of 10 mg/kg […] (iv) 1 hour prior to pathological state modeling. […] The effectiveness of a leader compound was evaluated at doses 5; 10 and 15 mg/kg iv. Mexydol was chosen as a reference drug having antihypoxic action in combination with antioxidant and membrane protective activity, which is successfully used in patients with CVA and IM. Mexydol was administered intraperitoneally (ip) at a dose of 100 mg/kg according to similar scheme.

[2] = test system: rats; test: Acute normobaric hypoxic hypoxia with hypercapnia (ANHHH), life duration; assay type: in vivo; settings: preventive administration; SI-86 and SI-108 10 mg/kg iv, mexydol 100 mg/kg ip
Procedure: The study of antihypoxic activity of 10 original derivatives of 3,2′-spiro-pyrrolo-2-oxindole was conducted on models of acute normobaric hypoxic hypoxia with hypercapnia (ANHHH) and acute asphyxia. ANHHH was modeled by means of rat arrangement into isolated pressure compartments (0.001 m^3). The observation conducted until the death of the animals. The antihypoxic activity was assessed by life duration (in minutes) in relation to the control taken as 100%, by the formula AA=tt/tk×100%, wherein AA—antihypoxic activity (%), tt—life duration of test animals, tc—life duration of control animals.
as §1

[3] = test system: rats with intracerebral hemorrhage; test: Conditioned response of passive avoidance (CRPA) in rats with intracerebral hemorrhage; assay type: in vivo; settings: 21st day; SI-86 10 mg/kg iv, mexydol 100, citocoline 250, actovegin 16, pyracetam 400 mg/kg ip; n = 15
Procedure: (§2) Neuroprotective effect of 3,2′-spiro-pyrrolo-2-oxindole derivative (SI-86 compound) was studied on IUD model of moderate severity modeled under propofol anesthesia (60 mg/kg intraperitoneally (ip)) by autoblood administration into the brain internal capsule (stereotactic coordinates of the projection: H=7.0 mm, L=3.0 mm, A=1.5 mm from bregma) ([…]) (Method for reproduction of intracerebral hemorrhage in rats/O. K. Yarosh, S. V. Kyrychenko, S. P. Halimonchyk [et al.]//Circulation and hemostasis.-2005.-No. 1.-P. 77-81). The chosen model allows to reproduce clinical pattern of […] and is adequate for clinical study of potential neuroprotective agents.
(§3) As comparators the following drugs were used: mexydol (“Mexydol” UC Pharmasoft, Russia), 100 mg/kg; citicoline (“Somazina” Ferrer International, SA, Spain), 250 mg/kg; aktovegin (“Aktovegin”, Nycomed, Austria), 16 mg/kg pyracetam (“Pyracetam” Darnitsa, Ukraine), 400 mg/kg. According to the latest clinical guidelines regarding the treatment of patients with CVA approved by the Ministry of Health of Ukraine (Order No. 602 dated 3 Aug. 2012), all these drugs are allowed to be included into schemes for intensive patients therapy with CVA as neuroprotective agents. They were used at recommended doses for preclinical studies (McGrow C. P. Experimental Cerebral Infarction Effects of Pentobarbital in Mongolian Gerbils/C. P. McGrow//Arch. Neurol.-1977.-Vol. 34, No. 6.-P. 334-336). Experimental therapy of acute cerebral ischemia with SI-86 compound and comparator started 1 hour after IUD once a day for 21 days. The SI-86 derivative was investigated in conventionally effective dose of 10 mg/kg […] (iv)-dose that according to the results of our previous study provides maximum antihypoxic activity of SI-86 compound. Reference drugs were injected intraperitoneally (ip). Rats of control pathology group were injected by autoblood and as therapy 0.9% NaCI solution was administered calculated for 2 ml/kg […].
Evaluation of the ability of animals to learn and memorize of aversive stimulus was examined in the test of conditioned response of passive avoidance (CRPA). The technique is based on innate rat instinct to limited shadowy space. The study in rats was conducted in two-compartment unit consisted of two sections—light and dark. An animal was arranged into light compartment, fixing latency time for entering into the dark compartment, wherein rat received current irritation and ran in the light compartment. CRPA retention was tested every other day under latency time change of rat entering into the dark compartment. Also the number of animals was noted not fully entered the dark chamber. Cerebroprotective efficiency criteria of studied compounds were also animal death term (days) and their mortality rate (in %).

[4] = test system: rats with intracerebral hemorrhage; test: Neurological deficit (C. P. McGrow stroke-index scale) in rats with intracerebral hemorrhage; assay type: in vivo; settings: n = 15
Procedure: as §2, §3
Neurological deficit in animals with acute CVA respectively in acute (4th day) and recovery (21 st day) periods was measured on C. P. McGrow stroke-index scale. The state severity was determined by amount of relevant points: to 3 points-mild, 3 to 7 points-average, above 7 points-severe degree. Pareses, paralyses of limbs, tremors, circus movement, ptoses, lateral positions, ability of rats to be maintained at the core of 15 cm diameter, rotating at the rate of 3 rpm were noted. The animals were tested daily by displaying the amount of points:
one-sided semi-ptosis—0.5 points; one-sided ptosis—1 point; tremor—0.5 points; circus movements—0.5 points; pareses of limbs (for each limb)—1 point; paralyses of limbs (for each limb)—2 points; lateral position—3 points; disability to maintain on rotating rod during 4 minutes—3 points.

[5] = test system: neuron-specific enolase (NSE); test: Neuron-specific enolase (NSE) activity in rats with intracerebral hemorrhage (ELISA); assay type: in vivo; settings: for NSE activity (dynamics of neurodestructive changes): acute cerebral hemorrhage, n = 7; for enzyme activity decreased in relation to the control pathology group: hemorrhage
Procedure: The derivative of 3,2′-spiro-pyrrolo-2-oxindole was investigated in conventionally effective dose of 10 mg/kg […] (iv)—dose that according to the results of our previous studies provided maximum antihypoxic activity of SI-86 compound. Reference drugs were injected intraperitoneally (ip). […] Autoblood was injected to rats with control pathology and 0.9% NaCI solution was administered as therapy calculated for 2 ml/kg ip.
Psevdooperated rats were exposed to all interventions (anesthesia, craniotomy) with the exception of autoblood administration that leveled traumatic impact of experimental conditions.
To determine neuron-specific enolase, the specific marker of cerebral ischemia,—for corresponding period (4 th and 21 st day of CVA) in rats, blood was sampled by sagittal sinus puncture (0.2-0.4 ml). NSE activity was measured by ELISA using a set NSE EIA KIT (DAI, USA) on the instrument of the company “Hipson” (Czech Republic).

[6] = test system: 11β-corticosterone; test: 11β-corticosterone level in venous blood of rats with bilateral carotid occlusion (ELISA); assay type: in vivo, Wistar rats; settings: for dynamics in percents in relation to control pathology group / dynamics in percents in relation to the group of pseudo-operated animals / 11β-corticosterone level in venous blood: BCO
Procedure: The neuroprotective effect of 3,2′-spiro-pyrrolo-2-oxindole derivative (SI-86 compound) was studied in Wistar rats on a model of cerebrovascular accident (CVA) of ischemic type in archencephalic pool forming bilateral carotid occlusion (BCO) by carotid artery ligation. The ligations for common carotid arteries was imposed under propofol anesthesia at a dose of 60 mg/kg intraperitoneally (ip), using surgical access to the front of the neck cutting through its white line. The chosen model allows to reproduce the clinical pattern of ischemic stroke and is adequate for clinical study of potential neuroprotective substances (Drug discovery and Evaluation: pharmacological assays/H. Gerhard Vogel (ed.).-2nd ed. 1453p.).
The derivative of 3,2′-spiro-pyrrolo-2-oxindole was investigated in conventionally effective dose of 10 mg/kg […] (iv)—dose which is provided maximum antihypoxic activity of SI-86 compound by the results of our previous study. The reference drugs were injected intraperitoneally (ip). BCO was applied to the rats of control pathology and 0.9% NaCI solution was administered as therapy calculated for 2 ml/kg ip.
Pseudo-operated rats were exposed to all interventions (anesthesia, skin incision, dissection of vessels) except arteries ligation that leveled traumatic impact of experimental conditions.
To determine a corticosterone level (species-specific cortisol analogue in rats, which is also a substrate for 11β-HSD1) in the corresponding period (4 th and 21 st CVA day) in rat by sagittal sinus puncture, blood was sampled (0.2-0.4 ml). The cortisol level was measured by ELISA using a CORTICOSTERONEE KIT set (Germany) on the instrument of the company “Hipson” (Czech Republic).

[7] = test system: neuron-specific enolase (NSE); test: Neuron-specific enolase (NSE) activity in rats with bilateral carotid occlusion (ELISA); assay type: in vivo; settings: BCO; for NSE activity (dynamics of neurodestructive changes): n = 7
Procedure: The derivative of 3,2′-spiro-pyrrolo-2-oxindole was studied in conventionally effective dose of 10 mg/kg […] (iv)—dose that by the results of our previous study provided maximum antihypoxic activity of the SI-86compound. Reference drugs were injected intraperitoneally (ip). […] BCO was made to rats of control pathology and as therapy 0.9% NaCI solution was administered calculated for 2 ml/kg ip.
Pseudooperative rats were exposed to all interventions (anesthesia, skin incision, dissection of vessels) except arteries ligation that leveled traumatic effect of experimental conditions.
To determine neurospecific enolase, specific marker of cerebral ischemia,—to the period (4 th and 21 st day of CVA) in rat's blood was sampled by sagittal sinus puncture (0.2-0.4 ml). NSE activity was measured by ELISA using a set NSE EIA KIT (DAI, USA) on the instrument of the company “Hipson” (Czech Republic).

[8] = day 4, SI-86 10 mg/kg iv, citocoline 250 mg/kg ip

## CCSCC[C@@H]1N[C@@]2(C(=O)N(Cc3ccc(Cl)cc3)c3ccccc32)[C@@H]2C(=O)N(c3ccc(C)cc3)C(=O)[C@H]12 [SI-108, 1-(4-Chloro-benzyl)-3′-[2-(ethylthio)ethyl]-5′-(4-methylphenyl)-3a′,6a′-dihydro-2′H-spiro[indole-3,1′-pyrrolo[3,4-c]pyrrol]-2,4′,6′(1H,3′H,5′H)-trione]
[1]
  Antihypoxic activity: −18.4%
  Duration of heart bioelectrical activity: 9.5 ± 1.1 min
[2]
  increase of life duration in rats in relation to control: 28.6%

## C[N+](C)(C)CCOP(=O)(O)OP(=O)([O-])OC[C@H]1O[C@@H](n2ccc(N)nc2=O)[C@H](O)[C@@H]1O [citocoline, reference compound]
[3]
  Latent period for entrance into dark compartment, prior study: 12.50 ± 0.75°*^# s
[4]; day 4, SI-86 10 mg/kg iv, mexydol 100, citocoline 250, actovegin 16, pyracetam 400 mg/kg ip
  neurological deficit, average point under C. P. McGrow scale: 5.0 points and 5.00 ± 0.18°*^#$ points
[4]; day 21, same doses
  neurological deficit, average point under C. P. McGrow scale: 3.1 points and 3.10 ± 0.15°*^#&$ points
[5]; [8]
  NSE activity (dynamics of neurodestructive changes): 1.292 ± 0.069
[5]; day 21, same doses
  NSE activity (dynamics of neurodestructive changes): 0.309 ± 0.05
[5]; 96 hours
  enzyme activity decreased in relation to the control pathology group: 2.2 times
[5]; 21 days
  enzyme activity decreased in relation to the control pathology group: 3.1 times
[6]; day 4
  dynamics in percents in relation to control pathology group: [−41.7%]
  dynamics in percents in relation to the group of pseudo-operated animals: (+126.9%)
[6]; [8]
  11β-corticosterone level in venous blood: 272.79 ± 1.95°* ng/ml
[6]; day 21
  dynamics in percents in relation to control pathology group: [−30.2%]
  dynamics in percents in relation to the group of pseudo-operated animals: (+152.7%)
[6]; day 21, same doses
  11β-corticosterone level in venous blood: 235.52 ± 7.82°*^• ng/ml
[6]; after 96 hours
  corticosterone concentration in sagittal sinus blood decreased in relation to the control pathology group: 41.7%
[6]; after 21 days
  corticosterone concentration in sagittal sinus blood decreased in relation to the control pathology group: 30.2%
[7]; 96 hours
  enzyme activity decreased in relation to the control pathology group: 1.27 times
[7]; 21 days
  enzyme activity decreased in relation to the control pathology group: 2.03 times
[7]; [8]
  NSE activity (dynamics of neurodestructive changes): 0.972 ± 0.010
[7]; day 21, same doses
  NSE activity (dynamics of neurodestructive changes): 0.385 ± 0.010
